From patent publication US12227482B2, “Compounds and compositions for the treatment of cancer” (The Regents of the University of California, priority 2016, dated 2025)

Assays:
Assay type in all cases: cell-based
LOX cells = assay: Cell viability (CellTiter-Glo ATP content) in LOX cells; details: LOX, 72 h, 72 hours treatment, cell survival by CellTiter-Glo, 2% fetal bovine serum
Protocol: (§1) Logarithmically growing A549, LOX and MelJuSo cells (ATCC) were plated in antibiotic-free RPMI medium (Coming) supplemented with 2% fetal bovine serum (Gemini Bio-products) at a density of 5,000 cells per well in clear-bottom 96-well plates. The next day cells were treated (triplicates) with increasing doses of a compound of the present disclosure (dissolved in DMSO) and DMSO vehicle controls (final DMSO concentration of 0.5%) for 72 hours and subsequently assessed for cell viability by measuring ATP content with CellTiter-Glo Luminescent Cell Viability Assay (Promega). Signal intensity was measured on a Glomax™ 96 Microplate Luminometer (Promega) and percent cell survival was calculated based on the reading of vehicle control cells set as 100%.

A549 cells = assay: Cell viability (CellTiter-Glo ATP content) in A549 cells; details: Homo sapiens, A549, 72 h, 72 hours treatment, cell survival by CellTiter-Glo, 2% fetal bovine serum
Protocol: as §1

MelJuSo cells = assay: Cell viability (CellTiter-Glo ATP content) in MelJuSo cells; details: Homo sapiens, MEL-JUSO, 72 hours treatment, cell survival by CellTiter-Glo, 2% fetal bovine serum
Protocol: as §1

SMILES | IC50 (LOX cells) [µM] | IC50 (A549 cells) [µM] | IC50 (MelJuSo cells) [µM]
CCCCC1C(c2ccc(F)cc2)=NN(c2ccc(Cl)cc2F)C1(C)C(=O)NCCCC(C)(C)CO (stereo not drawn) [Compound 23, 4-butyl-1-(4-chloro-2-fluorophenyl)-3-(4-fluorophenyl)-N-(5-hydroxy-4,4-dimethylpentyl)-5-methyl-4,5-dihydro-1H-pyrazole-5-carboxamide] | 0.5 to 1 | 0.5 to 1 | 0.25 to 0.5
CCCCC1C(c2ccc(F)cc2)=NN(c2ccc(F)cc2F)C1(C)C(=O)NCCCN(C)C (stereo not drawn) [Compound 24, 4-butyl-1-(2,4-difluorophenyl)-N-(3-(dimethylamino)propyl)-3-(4-fluorophenyl)-5-methyl-4,5-dihydro-1H-pyrazole-5-carboxamide] | > 2 | > 2 | > 2
CCCCC1C(c2ccc(F)cc2)=NN(c2ccc(F)cc2F)C1(C)C(=O)NCCCCOC (stereo not drawn) [Compound 25, 4-butyl-1-(2,4-difluorophenyl)-3-(4-fluorophenyl)-N-(4-methoxybutyl)-5-methyl-4,5-dihydro-1H-pyrazole-5-carboxamide] | > 2 | > 2 | 1 to 2
CCCCC1C(c2ccc(F)cc2)=NN(c2ccc(F)cc2F)C1(C)C(=O)N(C)CCCOC (stereo not drawn) [Compound 26, 4-butyl-1-(2,4-difluorophenyl)-3-(4-fluorophenyl)-N-(3-methoxypropyl)-N,5-dimethyl-4,5-dihydro-1H-pyrazole-5-carboxamide] | > 2 | > 2 | > 2
CCCCC1C(c2ccc(F)cc2)=NN(c2ccc(C(F)(F)F)cc2)C1(C)C(=O)NCCCC(C)(C)CO (stereo not drawn) [Compound 28, 4-butyl-3-(4-fluorophenyl)-N-(5-hydroxy-4,4-dimethylpentyl)-5-methyl-1-(4-(trifluoromethyl)phenyl)-4,5-dihydro-1H-pyrazole-5-carboxamide] | 1 to 2 | > 2 | 1 to 2
CCCCC1C(c2ccc(F)cc2)=NN(c2ccc(Cl)cc2C)C1(C)C(=O)NCCCC(C)(C)CO (stereo not drawn) [Compound 29, 4-butyl-1-(4-chloro-2-methylphenyl)-3-(4-fluorophenyl)-N-(5-hydroxy-4,4-dimethylpentyl)-5-methyl-4,5-dihydro-1H-pyrazole-5-carboxamide] | > 2 | > 2 | > 2
CCCCC1C(c2ccc(F)cc2)=NN(c2ccc(Cl)cc2C)C1(C)C(=O)NCCCOC (stereo not drawn) [Compound 30, 4-butyl-1-(4-chloro-2-methylphenyl)-3-(4-fluorophenyl)-N-(3-methoxypropyl)-5-methyl-4,5-dihydro-1H-pyrazole-5-carboxamide] | > 2 | > 2 | > 2
CCCCC1C(c2ccc(F)cc2)=NN(c2ccc(F)cc2F)C1(C)C(=O)NCCC(=O)OC (stereo not drawn) [Compound 31, methyl 3-(4-butyl-1-(2,4-difluorophenyl)-3-(4-fluorophenyl)-5-methyl-4,5-dihydro-1H-pyrazole-5-carboxamido)propanoate] | 1 to 2 | 1 to 2 | 0.5 to 1
CCCCC1C(c2ccc(F)cc2)=NN(c2ccc(F)cc2F)C1(C)C(=O)NCCOCC (stereo not drawn) [Compound 32, 4-butyl-1-(2,4-difluorophenyl)-N-(2-ethoxyethyl)-3-(4-fluorophenyl)-5-methyl-4,5-dihydro-1H-pyrazole-5-carboxamide] | 0.5 to 1 | 0.5 to 1 | 0.25 to 0.5
CCCCC1C(c2ccc(F)cc2)=NN(c2ccccc2)C1(C)C(=O)NCCCCCO (stereo not drawn) [Compound 33, 4-butyl-3-(4-fluorophenyl)-N-(5-hydroxypentyl)-5-methyl-1-phenyl-4,5-dihydro-1H-pyrazole-5-carboxamide] | 1 to 2 | > 2 | 0.5 to 1
CCCCC1C(c2ccc(F)cc2)=NN(c2ccccc2)C1(C)C(=O)NCCCCCCO (stereo not drawn) [Compound 34, 4-butyl-3-(4-fluorophenyl)-N-(6-hydroxyhexyl)-5-methyl-1-phenyl-4,5-dihydro-1H-pyrazole-5-carboxamide] | 0.5 to 1 | > 2 | 0.5 to 1
CCCCC1C(c2ccc(F)cc2)=NN(c2ccccc2)C1(C)C(=O)NCCCCO (stereo not drawn) [Compound 35, 4-butyl-3-(4-fluorophenyl)-N-(4-hydroxybutyl)-5-methyl-1-phenyl-4,5-dihydro-1H-pyrazole-5-carboxamide] | 1 to 2 | > 2 | 1 to 2
CCCCC1C(c2ccc(F)cc2)=NN(c2ccccc2)C1(C)C(=O)NCc1ccc(O)cc1 (stereo not drawn) [Compound 36, 4-butyl-3-(4-fluorophenyl)-N-(4-hydroxybenzyl)-5-methyl-1-phenyl-4,5-dihydro-1H-pyrazole-5-carboxamide] | > 2 | > 2 | 1 to 2
CCCCC1C(c2ccc(F)cc2)=NN(c2ccccc2)C1(C)C(=O)NC(C)(C)CO (stereo not drawn) [Compound 37, 4-butyl-3-(4-fluorophenyl)-N-(1-hydroxy-2-methylpropan-2-yl)-5-methyl-1-phenyl-4,5-dihydro-1H-pyrazole-5-carboxamide] | > 2 | > 2 | > 2
CCCCC1C(c2ccc(F)cc2)=NN(c2ccccc2)C1(C)C(=O)NCCc1ccc(O)cc1 (stereo not drawn) [Compound 38, 4-butyl-3-(4-fluorophenyl)-N-(4-hydroxyphenethyl)-5-methyl-1-phenyl-4,5-dihydro-1H-pyrazole-5-carboxamide] | > 2 | > 2 | 0.5 to 1
CCCCC1C(c2ccc(F)cc2)=NN(c2ccccc2)C1(C)C(=O)NCc1cccc(Cl)c1 (stereo not drawn) [Compound 39, 4-butyl-N-(3-chlorobenzyl)-3-(4-fluorophenyl)-5-methyl-1-phenyl-4,5-dihydro-1H-pyrazole-5-carboxamide] | > 2 | > 2 | > 2
CCCCC1C(c2ccc(F)cc2)=NN(c2ccccc2)C1(C)C(=O)NCc1ccc(Cl)c(Cl)c1 (stereo not drawn) [Compound 40, 4-butyl-N-(3,4-dichlorobenzyl)-3-(4-fluorophenyl)-5-methyl-1-phenyl-4,5-dihydro-1H-pyrazole-5-carboxamide] | > 2 | > 2 | > 2
CCCCC1C(c2ccc(F)cc2)=NN(c2ccccc2)C1(C)C(=O)NCc1cc(Cl)cc(Cl)c1 (stereo not drawn) [Compound 41, 4-butyl-N-(3,5-dichlorobenzyl)-3-(4-fluorophenyl)-5-methyl-1-phenyl-4,5-dihydro-1H-pyrazole-5-carboxamide] | > 2 | > 2 | 1 to 2
CCCCC1C(c2ccc(F)cc2)=NN(c2ccccc2)C1(C)C(=O)N[C@@H](C)c1ccccc1 (stereo partly drawn) [Compound 42, 4-butyl-3-(4-fluorophenyl)-5-methyl-1-phenyl-N-((S)-1-phenylethyl)-4,5-dihydro-1H-pyrazole-5-carboxamide] | > 2 | > 2 | > 2
CCCCC1C(c2ccc(F)cc2)=NN(c2ccccc2)C1(C)C(=O)N[C@H](C)c1ccccc1 (stereo partly drawn) [Compound 43, 4-butyl-3-(4-fluorophenyl)-5-methyl-1-phenyl-N-((R)-1-phenylethyl)-4,5-dihydro-1H-pyrazole-5-carboxamide] | > 2 | > 2 | > 2
CCCCC1C(c2ccc(F)cc2)=NN(c2ccccc2)C1(C)C(=O)NCc1ccccc1OC (stereo not drawn) [Compound 44, 4-butyl-3-(4-fluorophenyl)-N-(2-methoxybenzyl)-5-methyl-1-phenyl-4,5-dihydro-1H-pyrazole-5-carboxamide] | > 2 | > 2 | > 2
CCCCC1C(c2ccc(F)cc2)=NN(c2ccccc2)C1(C)C(=O)NCc1cccc(OC)c1OC (stereo not drawn) [Compound 45, 4-butyl-N-(2,3-dimethoxybenzyl)-3-(4-fluorophenyl)-5-methyl-1-phenyl-4,5-dihydro-1H-pyrazole-5-carboxamide] | > 2 | > 2 | > 2
CCCCC1C(c2ccc(F)cc2)=NN(c2ccccc2)C1(C)C(=O)NCc1ccc(OC)cc1OC (stereo not drawn) [Compound 46, 4-butyl-N-(2,4-dimethoxybenzyl)-3-(4-fluorophenyl)-5-methyl-1-phenyl-4,5-dihydro-1H-pyrazole-5-carboxamide] | > 2 | > 2 | > 2
CCCCC1C(c2ccc(F)cc2)=NN(c2ccccc2)C1(C)C(=O)N(C)Cc1ccc(OC)c(OC)c1 (stereo not drawn) [Compound 47, 4-butyl-N-(3,4-dimethoxybenzyl)-3-(4-fluorophenyl)-N,5-dimethyl-1-phenyl-4,5-dihydro-1H-pyrazole-5-carboxamide] | > 2 | > 2 | > 2
CCCCC1C(c2ccc(F)cc2)=NN(c2ccccc2)C1(C)C(=O)NCc1ccc(N(C)C)cc1 (stereo not drawn) [Compound 48, 4-butyl-N-(4-(dimethylamino)benzyl)-3-(4-fluorophenyl)-5-methyl-1-phenyl-4,5-dihydro-1H-pyrazole-5-carboxamide] | > 2 | > 2 | > 2
CCCCC1C(c2ccc(F)cc2)=NN(c2ccccc2)C1(C)C(=O)NCCCN(C)C (stereo not drawn) [Compound 49, 4-butyl-N-(3-(dimethylamino)propyl)-3-(4-fluorophenyl)-5-methyl-1-phenyl-4,5-dihydro-1H-pyrazole-5-carboxamide] | > 2 | > 2 | > 2
CCCCC1C(c2ccc(F)cc2)=NN(c2ccccc2)C1(C)C(=O)NCC(C)(C)CN(C)C (stereo not drawn) [Compound 50, 4-butyl-N-(3-(dimethylamino)-2,2-dimethylpropyl)-3-(4-fluorophenyl)-5-methyl-1-phenyl-4,5-dihydro-1H-pyrazole-5-carboxamide] | > 2 | > 2 | > 2
